Test results: US20030181520A1, “Methods of reversing and preventing cardiovascular pathologies” (priority 2001, published 2003)

Key:
[1] = system: coronary artery opening at the site of angioplasty; assay: Clinical trial: minimal luminal area by intravascular ultrasound (IVUS) six months after angioplasty; assay type: in vivo, human; conditions: for mean minimal luminal area: IVUS six months after angioplasty
Procedure: (§1) The primary endpoint of the trial was the size of the lumenal area (coronary artery opening), as measured by intravascular ultrasound (IVUS), six months after angioplasty. […] Angiographic restenosis was also assessed using a standard definition of restenosis as measured by quantitative coronary angiography (QCA). […] An IVUS analysis of reference vessels (blood vessels of coronary arteries that were not targets of angioplasty procedures) was also carried out. The data indicated lumen volumes increased for patients who received either of the top two doses of Compound A. In contrast, patients on placebo had decreased lumen volumes, consistent with the expected progression of atherosclerosis.
A study was conducted to determine whether Compound A reduces restenosis as assessed by intravascular ultrasound (IVUS) when administered for 2 weeks before and 4 weeks after percutaneous coronary intervention (PCI) with or without stent placement. A multi-center, double-blind placebo-controlled randomized trail with 5 treatment groups:
(§2) Treatment of the above was given 2 weeks prior to and 4 weeks after PCI. PCI was performed on greater than or equal to 1 native artery with greater than or equal to 1 de novo lesion of greater than or equal to 50%. All PCI procedures (with or without stent placement) and post-PCI management were performed according to recognized current clinical practice. 0.3 mg of nitroglycerin(Ntg) intracoronary (IC) were administered at every angiogram. Quantitative Coronary Angiography (QCA) measurements were taken prior to-PCI, 10 minutes post-PCI, and final follow-up (approximately 6 months).
(§3) IVUS examinations were conducted at 30 Mhz using 3.5 French CVIS catheters. All IVUS examinations were preceded by IC Ntg 0.3 mg. Results of these examinations are found in FIGS. 1-6.

[2] = system: stented arteries; assay: Clinical trial: angiographic restenosis by quantitative coronary angiography (QCA); assay type: in vivo, human; conditions: for rate of angiographic restenosis in stented arteries: QCA; for restenosis rate reduction: relative to placebo (37.5 percent); for restenosis after PCI: treatment 2 weeks before and 4 weeks after PCI
Procedure: as §1, §2

[3] = system: reference vessels (coronary arteries that were not targets of angioplasty); assay: Clinical trial: IVUS analysis of lumen volume of reference vessels (non-PCI site); assay type: in vivo, human; conditions: for lumen volume change of reference vessels: IVUS, non-PCI site
Procedure: as §1, §3

[4] = system: QTc interval; assay: Clinical trial: QTc interval; assay type: in vivo, human
[5] = Antioxidant activity (preclinical comparison)
[6] = system: VCAM-1; assay: VCAM-1 gene expression inhibition; assay type: cell-based; conditions: compound A at low micromolar concentrations, probucol at very high concentrations
[7] = system: MCP-1; assay: MCP-1 gene expression inhibition; assay type: cell-based; conditions: compound A at low micromolar concentrations, probucol at very high concentrations
[8] = Anti-inflammatory activity (preclinical comparison)

SMILES | mean minimal luminal area ([1]; 70 mg once a day for six weeks) | mean minimal luminal area ([1]; 140 mg once a day for six weeks) | mean minimal luminal area ([1]; 280 mg once a day for six weeks, p<0.05 vs. placebo) | luminal area at the site of angioplasty ([1]; at two weeks, p<0.05) | rate of angiographic restenosis in stented arteries ([2]; combined Compound A arms (70, 140, 280 mg once a day)) | restenosis rate reduction ([2]; combined Compound A arms) | restenosis after PCI [2] | lumen volume change of reference vessels ([3]; 70 mg once a day) | lumen volume change of reference vessels ([3]; 140 mg once a day) | lumen volume change of reference vessels ([3]; 280 mg once a day) | lumen dimensions of the reference segments ([3]; in contrast to probucol) | prolongation of the QTc interval [4] | antioxidant properties [5] | inhibition of VCAM-1 gene expression [6] | inhibition of MCP-1 gene expression [7] | activity as an anti-inflammatory agent [8] | mean minimal luminal area ([1]; probucol 500 mg twice a day for six weeks) | restenosis rate reduction ([2]; probucol 500 mg twice a day) | rate of angiographic restenosis in stented arteries ([2]; probucol 500 mg twice a day) | lumen volume change of reference vessels ([3]; probucol 500 mg twice a day)
CC(C)(Sc1cc(C(C)(C)C)c(O)c(C(C)(C)C)c1)Sc1cc(C(C)(C)C)c(OC(=O)CCC(=O)O)c(C(C)(C)C)c1 [Compound A, Butanedioic acid, mono [4-[[1-[[3,5-bis(1,1-dimethylethyl)-4-hydroxyphenyl]thio]-1-methylethyl]thio]2,6-bis(1,1-dimethylethyl)phenyl]ester] | 2.75 mm2 | 3.17 mm2 | 3.36 mm2 | dose response improvement | 26.0% | 31% | reduce restenosis | −2.4 mm3 | +3.5 mm3 | +1.8 mm3 | surprising improvement | without causing prolongation | equipotent to probucol | very active inhibitor | very active inhibitor | consistently very effective | – | – | – | –
CC(C)(Sc1cc(C(C)(C)C)c(O)c(C(C)(C)C)c1)Sc1cc(C(C)(C)C)c(O)c(C(C)(C)C)c1 [Probucol, probucol, reference compound] | – | – | – | – | – | – | reduce restenosis | – | – | – | – | – | – | inactive | inactive | – | 3.69 mm2 | 32% | 25.5% | −0.2 mm3
